Results from the NIST ThermoML archive (doi:10.1016/j.fluid.2019.06.022).
Values joined by “and” are separate entries in the source; they are usually repeats but may differ in a detail not shown here. Equal entries are not always repeated. Numbers after ± are expanded uncertainties.

Assay: xn = mol fraction of the nth substance listed
Settings: Liquid; for mass density: Bellows volumetry; for viscosity: Falling or rolling sphere viscometry
[1] = 376.9 K, 14300 kPa, x1 = 0.0787
[2] = 376.9 K, 14600 kPa, x1 = 0.0787
[3] = 376.9 K, 26800 kPa, x1 = 0.0787
[4] = 376.9 K, 27000 kPa, x1 = 0.0787
[5] = 376.9 K, 27200 kPa, x1 = 0.0787
[6] = 376.9 K, 27400 kPa, x1 = 0.0787
[7] = 376.9 K, 27600 kPa, x1 = 0.0787
[8] = 376.9 K, 41000 kPa, x1 = 0.0787
[9] = 376.9 K, 41200 kPa, x1 = 0.0787
[10] = 376.9 K, 55500 kPa, x1 = 0.0787
[11] = 376.9 K, 55800 kPa, x1 = 0.0787
[12] = 376.9 K, 68600 kPa, x1 = 0.0787
[13] = 376.9 K, 68900 kPa, x1 = 0.0787
[14] = 440.5 K, 20300 kPa, x1 = 0.3073
[15] = 440.5 K, 37200 kPa, x1 = 0.3073
[16] = 440.5 K, 37400 kPa, x1 = 0.3073
[17] = 440.5 K, 37500 kPa, x1 = 0.3073
[18] = 440.5 K, 50100 kPa, x1 = 0.3073
[19] = 440.5 K, 50200 kPa, x1 = 0.3073
[20] = 440.5 K, 68600 kPa, x1 = 0.3073
[21] = 440.5 K, 68700 kPa, x1 = 0.3073
[22] = 529.2 K, 35300 kPa, x1 = 0.3073
[23] = 529.2 K, 49000 kPa, x1 = 0.3073
[24] = 529.2 K, 68500 kPa, x1 = 0.3073
[25] = 529.2 K, 68600 kPa, x1 = 0.3073
[26] = 531.1 K, 19200 kPa, x1 = 0.0787
[27] = 531.1 K, 19400 kPa, x1 = 0.0787
[28] = 531.1 K, 31900 kPa, x1 = 0.0787
[29] = 531.1 K, 32000 kPa, x1 = 0.0787
[30] = 531.1 K, 32100 kPa, x1 = 0.0787
[31] = 531.1 K, 32200 kPa, x1 = 0.0787
[32] = 531.1 K, 41400 kPa, x1 = 0.0787
[33] = 531.1 K, 41500 kPa, x1 = 0.0787
[34] = 531.1 K, 41600 kPa, x1 = 0.0787
[35] = 531.1 K, 53300 kPa, x1 = 0.0787
[36] = 531.1 K, 53400 kPa, x1 = 0.0787
[37] = 531.1 K, 67100 kPa, x1 = 0.0787
[38] = 531.1 K, 67200 kPa, x1 = 0.0787

Structure (SMILES): C=CC [propene] + Cc1ccccc1
- mass density (376.9 K, 3100 kPa, x1 = 0.0787): 760.8 ± 18 kg/m3
- viscosity (376.9 K, 3100 kPa, x1 = 0.0787): 0.253 ± 0.01 mPa·s
- mass density (376.9 K, 3200 kPa, x1 = 0.0787): 760.8 ± 18 kg/m3
- viscosity (376.9 K, 3200 kPa, x1 = 0.0787): 0.252 ± 0.01 mPa·s
- mass density (376.9 K, 3900 kPa, x1 = 0.0787): 762.5 ± 18 kg/m3
- viscosity (376.9 K, 3900 kPa, x1 = 0.0787): 0.26 ± 0.011 mPa·s
- mass density (376.9 K, 8400 kPa, x1 = 0.0787): 767 ± 18 kg/m3
- viscosity (376.9 K, 8400 kPa, x1 = 0.0787): 0.264 ± 0.011 mPa·s
- mass density (376.9 K, 8500 kPa, x1 = 0.0787): 767 ± 18 kg/m3
- viscosity (376.9 K, 8500 kPa, x1 = 0.0787): 0.267 ± 0.011 mPa·s
- mass density (376.9 K, 8600 kPa, x1 = 0.0787): 767 ± 18 kg/m3
- viscosity (376.9 K, 8600 kPa, x1 = 0.0787): 0.267 ± 0.011 mPa·s
- mass density (376.9 K, 8700 kPa, x1 = 0.0787): 767.3 ± 18 kg/m3
- viscosity (376.9 K, 8700 kPa, x1 = 0.0787): 0.269 ± 0.011 mPa·s
- mass density [1]: 774.1 ± 19 kg/m3
- viscosity [1]: 0.282 ± 0.012 mPa·s
- mass density [2]: 774.1 ± 19 kg/m3
- viscosity [2]: 0.283 ± 0.012 mPa·s
- mass density [3]: 786.3 ± 19 kg/m3
- viscosity [3]: 0.314 ± 0.013 mPa·s
- mass density [4]: 786.3 ± 19 kg/m3
- viscosity [4]: 0.312 ± 0.013 mPa·s
- mass density [5]: 786.6 ± 19 kg/m3
- viscosity [5]: 0.312 ± 0.013 mPa·s
- mass density [6]: 786.6 ± 19 kg/m3
- viscosity [6]: 0.317 ± 0.013 mPa·s and 0.312 ± 0.013 mPa·s
- mass density [7]: 786.6 ± 19 kg/m3
- viscosity [7]: 0.317 ± 0.013 mPa·s
- mass density [8]: 799.3 ± 19 kg/m3 and 798.4 ± 19 kg/m3
- viscosity [8]: 0.352 ± 0.014 mPa·s and 0.349 ± 0.014 mPa·s
- mass density [9]: 798.4 ± 19 kg/m3 and 799.3 ± 19 kg/m3
- viscosity [9]: 0.345 ± 0.014 mPa·s and 0.353 ± 0.014 mPa·s
- mass density [10]: 810.5 ± 20 kg/m3
- viscosity [10]: 0.376 ± 0.015 mPa·s
- mass density [11]: 810.5 ± 20 kg/m3
- viscosity [11]: 0.386 ± 0.016 mPa·s
- mass density [12]: 819.9 ± 20 kg/m3
- viscosity [12]: 0.419 ± 0.017 mPa·s
- mass density [13]: 819.9 ± 20 kg/m3
- viscosity [13]: 0.418 ± 0.017 mPa·s
- mass density (440.5 K, 3600 kPa, x1 = 0.3073): 599.7 ± 14 kg/m3
- viscosity (440.5 K, 3600 kPa, x1 = 0.3073): 0.12 ± 0.005 mPa·s and 0.121 ± 0.005 mPa·s
- mass density (440.5 K, 7500 kPa, x1 = 0.3073): 612.2 ± 15 kg/m3
- viscosity (440.5 K, 7500 kPa, x1 = 0.3073): 0.129 ± 0.005 mPa·s
- mass density (440.5 K, 7600 kPa, x1 = 0.3073): 612.2 ± 15 kg/m3
- viscosity (440.5 K, 7600 kPa, x1 = 0.3073): 0.129 ± 0.005 mPa·s
- mass density [14]: 642.2 ± 15 kg/m3
- viscosity [14]: 0.15 ± 0.006 mPa·s
- mass density [15]: 669.5 ± 16 kg/m3
- viscosity [15]: 0.176 ± 0.007 mPa·s and 0.177 ± 0.007 mPa·s
- mass density [16]: 669.5 ± 16 kg/m3
- viscosity [16]: 0.174 ± 0.007 mPa·s
- mass density [17]: 669.5 ± 16 kg/m3
- viscosity [17]: 0.178 ± 0.007 mPa·s
- mass density [18]: 683.9 ± 16 kg/m3
- viscosity [18]: 0.195 ± 0.008 mPa·s
- mass density [19]: 683.8 ± 16 kg/m3
- viscosity [19]: 0.193 ± 0.008 mPa·s
- mass density [20]: 703.5 ± 17 kg/m3
- viscosity [20]: 0.221 ± 0.009 mPa·s
- mass density [21]: 703.5 ± 17 kg/m3
- viscosity [21]: 0.222 ± 0.009 mPa·s
- mass density (443 K, 3200 kPa, x1 = 0.0787): 691.9 ± 17 kg/m3
- viscosity (443 K, 3200 kPa, x1 = 0.0787): 0.152 ± 0.006 mPa·s
- mass density (443 K, 3300 kPa, x1 = 0.0787): 691.6 ± 17 kg/m3
- viscosity (443 K, 3300 kPa, x1 = 0.0787): 0.151 ± 0.006 mPa·s
- mass density (443 K, 10500 kPa, x1 = 0.0787): 706.3 ± 17 kg/m3
- viscosity (443 K, 10500 kPa, x1 = 0.0787): 0.17 ± 0.007 mPa·s and 0.166 ± 0.007 mPa·s
- mass density (443 K, 15100 kPa, x1 = 0.0787): 714.5 ± 17 kg/m3
- viscosity (443 K, 15100 kPa, x1 = 0.0787): 0.178 ± 0.007 mPa·s
- mass density (443 K, 15300 kPa, x1 = 0.0787): 714.5 ± 17 kg/m3
- viscosity (443 K, 15300 kPa, x1 = 0.0787): 0.178 ± 0.007 mPa·s
- mass density (443 K, 27100 kPa, x1 = 0.0787): 732.1 ± 18 kg/m3
- viscosity (443 K, 27100 kPa, x1 = 0.0787): 0.201 ± 0.008 mPa·s
- mass density (443 K, 27200 kPa, x1 = 0.0787): 732.1 ± 18 kg/m3
- viscosity (443 K, 27200 kPa, x1 = 0.0787): 0.2 ± 0.008 mPa·s and 0.201 ± 0.008 mPa·s
- mass density (443 K, 27300 kPa, x1 = 0.0787): 731.8 ± 18 kg/m3
- viscosity (443 K, 27300 kPa, x1 = 0.0787): 0.201 ± 0.008 mPa·s
- mass density (443 K, 37600 kPa, x1 = 0.0787): 745.3 ± 18 kg/m3
- viscosity (443 K, 37600 kPa, x1 = 0.0787): 0.221 ± 0.009 mPa·s
- mass density (443 K, 37800 kPa, x1 = 0.0787): 745.3 ± 18 kg/m3
- viscosity (443 K, 37800 kPa, x1 = 0.0787): 0.218 ± 0.009 mPa·s
- mass density (443 K, 47900 kPa, x1 = 0.0787): 756.2 ± 18 kg/m3
- viscosity (443 K, 47900 kPa, x1 = 0.0787): 0.243 ± 0.01 mPa·s and 0.244 ± 0.01 mPa·s
- mass density (443 K, 64800 kPa, x1 = 0.0787): 772.1 ± 18 kg/m3
- viscosity (443 K, 64800 kPa, x1 = 0.0787): 0.271 ± 0.011 mPa·s
- mass density (443 K, 65000 kPa, x1 = 0.0787): 772.4 ± 18 kg/m3
- viscosity (443 K, 65000 kPa, x1 = 0.0787): 0.271 ± 0.011 mPa·s
- mass density [22]: 593.8 ± 14 kg/m3
- viscosity [22]: 0.119 ± 0.005 mPa·s and 0.12 ± 0.005 mPa·s
- mass density [23]: 619 ± 15 kg/m3 and 619.1 ± 15 kg/m3
- viscosity [23]: 0.132 ± 0.005 mPa·s and 0.135 ± 0.006 mPa·s
- mass density [24]: 647.6 ± 16 kg/m3
- viscosity [24]: 0.156 ± 0.006 mPa·s
- mass density [25]: 647.5 ± 16 kg/m3
- viscosity [25]: 0.153 ± 0.006 mPa·s
- mass density (531.1 K, 7200 kPa, x1 = 0.0787): 599.1 ± 14 kg/m3
- viscosity (531.1 K, 7200 kPa, x1 = 0.0787): 0.091 ± 0.004 mPa·s
- mass density [26]: 641.3 ± 15 kg/m3
- viscosity [26]: 0.114 ± 0.005 mPa·s
- mass density [27]: 641.1 ± 15 kg/m3
- viscosity [27]: 0.113 ± 0.005 mPa·s
- mass density [28]: 669.1 ± 16 kg/m3 and 669.7 ± 16 kg/m3 and 669.3 ± 16 kg/m3
- viscosity [28]: 0.133 ± 0.005 mPa·s and 0.134 ± 0.005 mPa·s
- mass density [29]: 670.2 ± 16 kg/m3
- viscosity [29]: 0.133 ± 0.006 mPa·s
- mass density [30]: 670 ± 16 kg/m3
- viscosity [30]: 0.131 ± 0.005 mPa·s
- mass density [31]: 670.2 ± 16 kg/m3
- viscosity [31]: 0.136 ± 0.006 mPa·s
- mass density [32]: 685 ± 16 kg/m3
- viscosity [32]: 0.148 ± 0.006 mPa·s
- mass density [33]: 685 ± 16 kg/m3 and 685.2 ± 16 kg/m3
- viscosity [33]: 0.145 ± 0.006 mPa·s and 0.148 ± 0.006 mPa·s
- mass density [34]: 685.2 ± 16 kg/m3
- viscosity [34]: 0.146 ± 0.006 mPa·s
- mass density [35]: 702.3 ± 17 kg/m3 and 701.5 ± 17 kg/m3
- viscosity [35]: 0.165 ± 0.007 mPa·s
- mass density [36]: 701.7 ± 17 kg/m3 and 702.5 ± 17 kg/m3
- viscosity [36]: 0.164 ± 0.007 mPa·s and 0.165 ± 0.007 mPa·s
- mass density [37]: 718.1 ± 17 kg/m3
- viscosity [37]: 0.18 ± 0.007 mPa·s
- mass density [38]: 718.6 ± 17 kg/m3
- viscosity [38]: 0.179 ± 0.007 mPa·s
